Structures can show the parent of a compound that is named as a salt.
How the values were obtained:
[1] = system: Intracellular elastase; experiment: Oral in vivo model using IL-8 induced lung infiltrates for the assessment of intracellular elastase inhibition (hamster test); conditions: effective dose of less than 40 mg/kg, IL-8 intratracheal
Procedure: An Oral in vivo Model Using IL-8 Induced Lung Infiltrates For the Assessment of Intracellular Elastase Inhibition
Adult hamsters (100-150 g) are randomised into groups (n=4) and fasted overnight. Under gaseous anaesthetic (3% isofluorane) animals are dosed orally with 1 mL/100 g water as vehicle or containing predissolved compounds. Either at the same time, or subsequently under anaesthetic, animals are dosed intratracheally with 1 ug recombinant human IL-8 in 100 uL sterile saline. Six hours after IL-8 dosing animals are sacrificed using intrapertoneal pentobarbitone. The lungs are ravaged with 2×2.5 mL sterile saline and femurs are removed by dissection.
Intracellular elastase is prepared from neutrophils collected by lavage and from femoral bone marrow. This is achieved by sonication of the neutrophils and centrifugation to yield intracellular granules. These are disrupted by freeze/thawing and sonication. Elastase and myeloperoxidase assays are then performed on these samples to assess the efficacy of the compounds and to normalise for neutrophil recovery.

[2] = biological target: T1, human neutrophil elastase (Homo sapiens, UniProt P08246); experiment: In vitro assay of human neutrophil elastase (HNE); type: biochemical; conditions: 118 nM purified human neutrophil elastase, pH 8.6, 15 min incubation at 30° C., MeO-succinyl-alanyl-alanyl-prolyl-valyl-p-nitroanilide substrate; read-out: HNE IC50
T1 sequence (P08246 30-267): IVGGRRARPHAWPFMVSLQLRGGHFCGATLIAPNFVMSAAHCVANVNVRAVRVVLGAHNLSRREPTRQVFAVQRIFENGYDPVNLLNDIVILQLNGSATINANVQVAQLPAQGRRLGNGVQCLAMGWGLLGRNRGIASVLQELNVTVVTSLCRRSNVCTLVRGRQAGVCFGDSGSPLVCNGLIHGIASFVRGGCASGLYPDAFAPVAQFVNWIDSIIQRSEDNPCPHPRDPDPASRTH
Method in brief: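 Residual activity was taken as the 10 min rate of absorbance rise at 405 nm after adding 0.6 mM MeO-succinyl-AAPV-p-nitroanilide. Curve fitting of activity against concentration gave IC50.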

IC50 [2] [nM]	Structure (SMILES)	duration of effect [1]
97	CCC[C@H]1C(=O)N(S(C)(=O)=O)[C@H]2CCN(C(=O)/C=C/CN3CCN(C)CC3)[C@H]12.Cl.Cl (relative stereo) [Example 254, rel-(3R,3aR,6aS)-1-Methanesulfonyl-4-[4-(4-methyl-piperazin-1-yl)-but-2E-enoyl]-3-propyl-hexahydro-pyrrolo[3,2-b]pyrrol-2-one dihydrochloride]	at least 6 hours
42	CC(=O)N1CCN(C/C=C/C(=O)N2CC[C@H]3[C@H]2[C@@H](C(C)C)C(=O)N3S(C)(=O)=O)CC1.Cl (relative stereo) [Example 138, rel-(3R,3aR,6aS)-4-[4-(4-Acetyl-piperazin-1-yl)-but-2E-enoyl]-3-isopropyl-1-methanesulfonyl-hexahydro-pyrrolo[3,2-b]pyrrol-2-one hydrochloride]	at least 6 hours
76	CC(C)[C@H]1C(=O)N(S(C)(=O)=O)[C@H]2CCN(C(=O)c3cccc(CN(C)C)c3)[C@H]12 (relative stereo) [Example 253, rel-(3R3aR,6aS)-4-(3-Dimethylaminomethyl-benzoyl)-3-isopropyl-1-methanesulfonyl-hexahydro-pyrrolo[3,2-b]pyrrol-2-one hydrochloride]	at least 6 hours
68	CC(C)[C@H]1C(=O)N(S(C)(=O)=O)[C@H]2CCN(C(=O)c3cccs3)[C@H]12 (relative stereo) [Example 249, rel-(3R,3aR,6aS)-3-Isopropyl-1-methanesulfonyl-4-(thiophene-2-carbonyl)-hexahydro-pyrrolo[3,2-b]pyrrol-2-one]	at least 6 hours
139	CCC[C@H]1C(=O)N(S(C)(=O)=O)[C@H]2CCN(C(=O)CCN3CCCCC3)[C@H]12 (relative stereo) [Example 29, rel-(3R,3aR,6aS)-1-Methanesulfonyl-4-(3-piperidin-1-yl-propionyl)-3-propyl-hexahydro-pyrrolo[3,2-b]pyrrol-2-one]	at least 6 hours
22	CC(C)[C@H]1C(=O)N(S(C)(=O)=O)[C@H]2CCN(C(=O)/C=C/CN3CCCCCC3)[C@H]12 (relative stereo) [Example 136, hydrochloride]	at least 6 hours
27	CCC[C@@H]1C(=O)N(S(C)(=O)=O)[C@@H]2CCN(C(=O)CCCCCN3CCCCCC3)[C@@H]12 [Example 117, hydrochloride]	at least 6 hours

The remaining lines, values behind:

Structure (SMILES)	IC50 [2] [nM]	duration of effect [1]
COC(=O)[C@@H]1CCCN1Cc1ccc(C(=O)N2CC[C@H]3[C@H]2[C@@H](C(C)C)C(=O)N3S(C)(=O)=O)cc1 (relative stereo) [Example 183, 1-[4-(rel-6R-Isopropyl-4-methanesulfonyl-5-oxo-hexahydro-(3aS,6aR)-pyrrolo[3,2-b]pyrrole-1-carbonyl)-benzyl]-pyrrolidine-2S-carboxylic acid methyl ester hydrochloride]	46	at least 6 hours
CC(C)[C@H]1C(=O)N(S(C)(=O)=O)[C@H]2CCN(C(=O)/C=C/CN(C)C)[C@H]12.Cl (relative stereo) [Example 148, rel-(3R,3aR,6aS)-4-(4-Dimethylamino-but-2E-enoyl)-3-isopropyl-1-methanesulfonyl-hexahydro-pyrrolo[3,2-b]pyrrol-2-one hydrochloride]	35	at least 6 hours
CC(C)NC/C=C/C(=O)N1CC[C@H]2[C@H]1[C@@H](C(C)C)C(=O)N2S(C)(=O)=O.Cl (relative stereo) [Example 151, rel-(3R,3aR,6aS)-3-Isopropyl-4-(4-isopropylamino-but-2E-enoyl)-1-methanesulfonyl-hexahydro-pyrrolo[3,2-b]pyrrol-2-one hydrochloride]	85	at least 6 hours
CCCN(C)C/C=C/C(=O)N1CC[C@H]2[C@H]1[C@@H](C(C)C)C(=O)N2S(C)(=O)=O.Cl (relative stereo) [Example 141, rel-(3R,3aR,6aS)-3-Isopropyl-1-methanesulfonyl-4-[4-(methyl-propyl-amino)-but-2E-enoyl]-hexahydro-pyrrolo[3,2-b]pyrrol-2-one hydrochloride]	176	at least 6 hours
CC(C)[C@H]1C(=O)N(S(C)(=O)=O)[C@H]2CCN(C(=O)c3ccc(CN(C)C)cc3)[C@H]12.Cl (relative stereo) [Example 175, rel-(3R,3aR,6aS)-4-(4-Dimethylaminomethyl-benzoyl)-3-isopropyl-1-methanesulfonyl-hexahydro-pyrrolo[3,2-b]pyrrol-2-one hydrochloride]	74	at least 6 hours
CC(C)[C@H]1C(=O)N(S(C)(=O)=O)[C@H]2CCN(C(=O)c3ccc(CN4CCOCC4)cc3)[C@H]12.Cl (relative stereo) [Example 177, rel-(3R,3aR,6aS)-3-Isopropyl-1-methanesulfonyl-4-(4-morpholin-4-ylmethyl-benzoyl)-hexahydro-pyrrolo[3,2-b]pyrrol-2-one hydrochloride]	20	at least 6 hours
CC(C)[C@H]1C(=O)N(S(C)(=O)=O)[C@H]2CCN(C(=O)c3ccc(CN4CCN(C)CC4)cc3)[C@H]12.Cl.Cl (relative stereo) [Example 176, rel-(3R,3aR,6aS)-3-Isopropyl-1-methanesulfonyl-4-[4-(4-methyl-piperazin-1-ylmethyl)-benzoyl]-hexahydro-pyrrolo[3,2-b]pyrrol-2-one dihydrochloride]	90	at least 6 hours
CCC[C@H]1C(=O)N(S(C)(=O)=O)[C@H]2CCN(C(=O)c3ccc(CN4CCCCC4)cc3)[C@H]12 (relative stereo) [Example 62, rel-(3R,3aR,6aS)-1-Methanesulfonyl-1-4-(4-piperidin-1-ylmethyl-benzoyl)-3-propyl-hexahydro-pyrrolo[3,2-b]pyrrol-2-one]	10	at least 6 hours
CC(C)[C@H]1C(=O)N(S(C)(=O)=O)[C@H]2CCN(C(=O)c3cccc(CN4CCC(C(N)=O)CC4)c3)[C@H]12.Cl (relative stereo) [Example 191, rel-1-[3-(6R-Isopropyl-4-methanesulfonyl-5-oxo-hexahydro-(3aS,6aR)-pyrrolo[3,2-b]pyrrole-1-carbonyl)-benzyl]-piperidine-4-carboxylic acid amide hydrochloride]	41	at least 6 hours
CC(C)[C@H]1C(=O)N(S(C)(=O)=O)[C@H]2CCN(C(=O)c3cccc(CNC4CC4)c3)[C@H]12.Cl (relative stereo) [Example 190, rel-(3R,3aR,6aS)-4-(3-Cyclopropylaminomethyl-benzoyl)-3-isopropyl-1-methanesulfonyl-hexahydro-pyrrolo[3,2-b]pyrrol-2-one hydrochloride]	24	at least 6 hours
COC(=O)[C@@H]1CCCN1C/C=C/C(=O)N1CC[C@H]2[C@H]1[C@@H](C(C)C)C(=O)N2S(C)(=O)=O (relative stereo) [Example 140, 1-[4-(rel-6R-Isopropyl-4-methanesulfonyl-5-oxo-hexahydro-(3aS,6aR)-pyrrolo[3,2-b]pyrrol-1-yl)-4-oxo-but-2E-enyl]-pyrrolidine-2S-carboxylic acid methyl ester hydrochloride]	36	at least 6 hours
CC(C)[C@H]1C(=O)N(S(C)(=O)=O)[C@H]2CCN(C(=O)c3ccc(CN4CCCCC4)o3)[C@H]12.Cl (relative stereo) [Example 250, rel-(3R,3aR,6aS)-3-Isopropyl-1-methanesulfonyl-4-(5-piperidin-1-ylmethyl-furan-2-carbonyl)-hexahydro-pyrrolo[3,2-b]pyrrol-2-one hydrochloride]	21	at least 6 hours
CC(C)[C@H]1C(=O)N(S(C)(=O)=O)[C@H]2CCN(C(=O)CCN3CCCCC3)[C@H]12 (relative stereo) [Example 61, rel-(3R,3aR,6aS)-3-isopropyl-1-methanesulfonyl-4-(3-piperidin-1yl-propionyl-hexahydro-pyrrolo[3,2-b]pyrrol-2-one hydrochloride]	242	at least 6 hours
CC(C)[C@H]1C(=O)N(S(C)(=O)=O)[C@H]2CCN(C(=O)/C=C/CN3CCC(C(N)=O)CC3)[C@H]12.Cl (relative stereo) [Example 152, rel-1-[4-(6R-Isopropyl-4-methanesulfonyl-5-oxo-hexahydro-(3aS,6aR)-pyrrolo[3,2-b]pyrrol-1-yl)-4-oxo-but-2E-enyl]-piperidine-4-carboxylic acid amide hydrochloride]	21	at least 6 hours
